From ChEMBL document CHEMBL1130295, “A QSAR study of antiplatelet agents using artificial neural network - correlation with micelle-water partition coefficient” (1997)

assay: Antiplatelet activity as log (APA) by using artificial neural network (ANN) method; assay type: functional

First: COc1cc2c(cc1-c1nc(C)c(-c3cccnc3)[nH]1)nc(O)n2C
Second: COc1cc2[nH]c(C)nc2cc1-c1nc(C)c(-c2cccnc2)[nH]1
The “Observed log APA” value of the first is lower: 0.57 for the first, 0.83 for the second.

Going from `COc1c(-c2nc(C)c(-c3cccnc3)[nH]2)cc2nc(O)[nH]c2c1Cl` to `COc1c(-c2nc(C)c(-c3cccnc3)[nH]2)cc2nc(C)[nH]c2c1Cl`, the “Observed log APA” value rises from 0.79 to 1.4.

Compared with `COc1c(-c2nc(C)c(-c3cccnc3)[nH]2)ccc2[nH]c(C)nc12`, `COc1c(-c2nc(C)c(-c3cccnc3)[nH]2)cc(Cl)c2[nH]c(C)nc12` is higher in “Observed log APA” value: 0.72 for the first, 1.3 for the second.

First: COc1cc(OC)c(-c2nc(C)c(-c3cccnc3)[nH]2)cc1NC(C)=O
Second: COc1cc(NC(C)=O)c(Cl)cc1-c1nc(C)c(-c2cccnc2)[nH]1
The “Observed log APA” value of the first is lower: 0.93 for the first, 1.4 for the second.

`Cc1nc2cc(Cl)c(-c3nc(C)c(-c4cccnc4)[nH]3)cc2[nH]1` and `Cc1nc2cc(-c3nc(C)c(-c4cccnc4)[nH]3)c(C)cc2[nH]1` are within 0.2 log units of each other in “Observed log APA” value: 0.68 for the first, 0.74 for the second.

`COc1ccccc1-c1nc(C)c(-c2cccnc2)[nH]1` and `CCOc1ccccc1-c1nc(C)c(-c2cccnc2)[nH]1` are the same in “Observed log APA” value: 1.1 for the first, 1.1 for the second.

`COc1cc(NC(C)=O)c([N+](=O)[O-])cc1-c1nc(C)c(-c2cccnc2)[nH]1` and `COC(=O)Nc1ccccc1-c1nc(C)c(-c2cccnc2)[nH]1` are within 0.2 log units of each other in “Observed log APA” value: 1.5 for the first, 1.4 for the second.

Going from `CSc1ccccc1-c1nc(C)c(-c2cccnc2)[nH]1` to `Cc1ccccc1-c1nc(C)c(-c2cccnc2)[nH]1`, the “Observed log APA” value falls from 0.95 to 0.18.

First: Cc1[nH]c(-c2ccccc2N)nc1-c1cccnc1
Second: Cc1[nH]c(-c2ccccc2Cl)nc1-c1cccnc1
The “Observed log APA” value of the first is higher: 0.8 for the first, 0.38 for the second.

First: COc1c(-c2nc(C)c(-c3cccnc3)[nH]2)cc(Cl)c2[nH]c(CCC(=O)O)nc12
Second: CCOC(=O)COc1ccccc1-c1nc(C)c(-c2cccnc2)[nH]1
The “Observed log APA” value of the first is lower: 0.4 for the first, 0.6 for the second.

Going from `CNC(=O)Nc1ccccc1-c1nc(C)c(-c2cccnc2)[nH]1` to `Cc1[nH]c(-c2ccccc2F)nc1-c1cccnc1`, the “Observed log APA” value rises from 1.1 to 1.4.
